Drawing on ChEMBL document CHEMBL6096716, “Second-Generation Cap Analogue Prodrugs for Targeting Aberrant Eukaryotic Translation Initiation Factor 4E Activity in Cancer” (ACS Med Chem Lett, 2025), this text covers IC50, Activity and EC50 for eight compounds.

Active and inactive are the calls of the source. The calls are words filed in the database; no cut-off is given here.

Experiment [1] has as its target T1, Eukaryotic translation initiation factor 4E (Homo sapiens, UniProt P06730). Nature of the experiment: Competitive inhibition of human 10 his-tagged eIF4E extracted from Escherichia coli BL21 (DE3) cells incubated for 40 mins by fluorescence polarization assay. (In general: Fluorescence polarisation rises when a labelled molecule tumbles more slowly, as on binding a larger partner.)

Experiment [2] has as its system A2058. Nature of the experiment: Antiproliferative activity against human A2058 cells harbouring BRAF V600E mutant assessed as cell death at 50 uM incubated for 48 hrs by Celltiter-glo assay. It is filed as functional, cell-based. A general note: In ATP-based viability assays light output follows the ATP content of the culture.
For experiment [3], the system named is A2058. Nature of the experiment: Antiproliferative activity against human A2058 cells harbouring BRAF V600E mutant assessed as cell death incubated for 48 hrs by Celltiter-glo assay. In kind it is functional, cell-based. The following applies: for EC50: A2058, 48 h; for Activity: dose 10-60 µM.
The target of experiment [4] is T1, Eukaryotic translation initiation factor 4E. Nature of the experiment: Induction of thermal stabilization of eIF4E in human HeLa cell lysates incubated for 1 hr at 42 to 52 degreeC by CETSA based Western blot analysis. It is filed as subcellular. On the technique in general: A western blot detects proteins with antibodies after separation by electrophoresis.
Experiment [5] relates to A2058. Nature of the experiment: Downregulation of CCND3 expression in human A2058 cells incubated for 6 hrs by Western blot analysis. It is filed as functional, cell-based.
In experiment [6] the test system is SK-MEL-2. Nature of the experiment: Antiproliferative activity against human SK-MEL-2 cells at 1.0 to 1.8 uM incubated for 48 hrs by Celltiter-glo assay. It is filed as functional, cell-based. Conditions: dose 1-1.8 µM.
Experiment [7] relates to A-375. Nature of the experiment: Antiproliferative activity against human A-375 cells incubated for 48 hrs by Celltiter-glo assay. In kind it is functional, cell-based. The following applies: A-375, 48 h.
Experiment [8] concerns A2058. Nature of the experiment: Downregulation of CCND1 expression in human A2058 cells incubated for 6 hrs by Western blot analysis. It is filed as functional, cell-based.
The subject of experiment [9] is A2058. Nature of the experiment: Effect on c-Myc expression in human A2058 cells incubated for 6 hrs by Western blot analysis. In kind it is functional, cell-based.
Experiment [10] deals with A2058. Nature of the experiment: Downregulation of ODC1 expression in human A2058 cells incubated for 6 hrs by Western blot analysis. It is filed as functional, cell-based.

T1 sequence (P06730 whole entry): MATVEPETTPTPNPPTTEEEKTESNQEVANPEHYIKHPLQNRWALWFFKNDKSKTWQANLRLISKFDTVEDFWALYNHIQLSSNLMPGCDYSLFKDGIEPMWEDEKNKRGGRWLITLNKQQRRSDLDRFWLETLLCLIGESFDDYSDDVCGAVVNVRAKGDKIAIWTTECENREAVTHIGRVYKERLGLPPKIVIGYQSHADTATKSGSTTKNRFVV

A word on the IC50: it is the concentration at which inhibition is half-maximal. Read a low IC50 as greater potency in that assay. With `Nc1nc2c(c(=O)[nH]1)[n+](Cc1cc3cc(Cl)ccc3o1)cn2Cc1ccccc1CCP(=O)(O)O`, in experiment [1], the IC50 is 17.2 µM.
As to `CC(C)(C)C(=O)OCOP(=O)(OCOC(=O)C(C)(C)C)c1cccc(Cn2c[n+](Cc3cc4cc(Cl)ccc4o3)c3c(=O)[nH]c(N)nc32)c1`, the Activity result in [2] is listed as “Active; Compound Found To Be Less Active”.
The same measure, in the same setting: the value for `CC(C)(C)C(=O)OCOP(=O)(Cc1cccc(Cn2c[n+](Cc3cc4cc(Cl)ccc4o3)c3c(=O)[nH]c(N)nc32)c1)OCOC(=O)C(C)(C)C` was “Active; Compound Found To Be Less Active”; that for `CC(C)(C)C(=O)OCOP(=O)(CCc1cccc(-n2c[n+](Cc3cc4cc(Cl)ccc4o3)c3c(=O)[nH]c(N)nc32)c1)OCOC(=O)C(C)(C)C` was “Active”.
A word on the EC50: it is the concentration at which the effect is half-maximal. Regarding `CC(C)(C)C(=O)OCOP(=O)(CCc1ccccc1Cn1c[n+](Cc2cc3cc(Cl)ccc3o2)c2c(=O)[nH]c(N)nc21)OCOC(=O)C(C)(C)C`, in [3], the EC50 amounted to 51.3 µM and the Activity entry was “Dose-dependent-effect”.
`CC(C)(C)C(=O)OCOP(=O)(CCc1ccc(Cn2c[n+](Cc3cc4cc(Cl)ccc4o3)c3c(=O)[nH]c(N)nc32)cc1)OCOC(=O)C(C)(C)C`: the result in experiment [3] was inactive.
As for `Nc1nc2c(c(=O)[nH]1)[n+](Cc1cc3cc(Cl)ccc3o1)cn2Cc1cccc(CCP(=O)(O)O)c1`, the result in [4] was Active. Also, in experiment [1], the IC50 is 4.1 µM.
For the compound `CC(C)(C)C(=O)OCOP(=O)(CCc1cccc(Cn2c[n+](Cc3cc4cc(Cl)ccc4o3)c3c(=O)[nH]c(N)nc32)c1)OCOC(=O)C(C)(C)C`, the outcome in experiment [5], in [8] and in [10] was Active. Besides, the EC50 worked out at 40 µM in experiment [3] and 54 µM in experiment [7]. For the same compound, the Activity entry in experiment [3] is “Dose-dependent-effect”; in experiment [2], “Active; Compound Showed Near Complete Cell Death”. Further, the result in [6] and in experiment [9] was inactive.
